Experimental data taken from ChEMBL document CHEMBL1140395, “Diamino-C,N-diarylpyridine positional isomers as inhibitors of lysophosphatidic acid acyltransferase-beta” (Bioorg Med Chem Lett, 2005).
Several values for one entry are separate records, joined by “and”; a condition that tells them apart may be missing. Equal values may be shown once.

Target: T1, 1-acyl-sn-glycerol-3-phosphate acyltransferase beta (Homo sapiens, UniProt O15120)
T1 sequence (O15120 whole entry): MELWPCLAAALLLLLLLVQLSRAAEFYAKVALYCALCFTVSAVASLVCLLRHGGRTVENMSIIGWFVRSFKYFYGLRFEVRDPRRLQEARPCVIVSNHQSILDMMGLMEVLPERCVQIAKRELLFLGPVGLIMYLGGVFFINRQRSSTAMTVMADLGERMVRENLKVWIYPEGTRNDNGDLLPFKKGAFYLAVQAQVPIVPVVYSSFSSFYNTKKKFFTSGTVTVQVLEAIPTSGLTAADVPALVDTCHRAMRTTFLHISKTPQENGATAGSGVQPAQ
Assay: Inhibitory activity against Lysophosphatidic acid acyltransferase-beta enzyme over-expressed in Sf9 insect cell membrane

IC50 | Structure (SMILES)
2050 nM | COc1ccc(Cl)cc1-c1cc(N)nc(Nc2ccc(Cl)cc2)n1
260 nM | CCOc1ccc(Cl)cc1-c1nc(N)nc(Nc2ccc(Cl)cc2)n1
70 nM and 45 nM | COc1ccc(Cl)cc1-c1nc(N)nc(Nc2ccc(Cl)cc2)n1
> 40000 nM | COc1ccc(Cl)cc1-c1cc(Nc2ccc(C)cc2)cc(N)n1
